The values below come from ChEMBL document CHEMBL4190360, “Exploring Heteroaryl-pyrazole Carboxylic Acids as Human Carbonic Anhydrase XII Inhibitors” (ACS Med Chem Lett, 2017).

In data set [1] the test system is HEK293. Kind of data set: (§1) Growth inhibition of HEK293 cells at 1 to 100 uM after 24 hrs by MTS assay relative to control. In kind it is cell-based. The note with it: human, hek293, 24 h, 100 µM. Background: Tetrazolium assays rely on reduction of a dye to a coloured formazan, in cell work by metabolically active cells.
The test system of another data set is PC-3. Nature of the data set: Growth inhibition of human PC3 cells at 1 to 100 uM after 24 hrs by MTS assay relative to control. The format is functional.
In data set [2] the test system is SH-SY5Y. Kind of data set: Growth inhibition of human SH-SY5Y cells at 1 to 100 uM after 24 hrs by MTS assay relative to control. The format is functional.
For another data set, the target named is Carbonic anhydrase 9 (Homo sapiens, UniProt Q16790).
The nature of data set [3]: as §1. In kind it is cell-based. The note with it: human, HEK293 cells; read-out: GI.
For data set [4], the system named is SH-SY5Y. Kind of data set: Antiproliferative activity against CoCl2-simulated human SH-SY5Y cells assessed as reduction in cell viability at 30 uM pretreated for 24 hrs followed by CoCl2 addition measured after overnight incubation by MTS assay. The format is functional.
Data set [5] has as its system HEK293. Kind of data set: Growth inhibition of HEK293 cells after 24 hrs by MTS assay. In kind it is cell-based. The note with it: human, hek293, 24 h.

Description for Carbonic anhydrase 9: Inhibition of recombinant human carbonic anhydrase 9 catalytic domain preincubated for 15 mins prior to testing measured for 10 to 100 secs by phenol red-based stopped-flow CO2 hydration assay

As to `CCn1cc(-c2cc(C(=O)OC)[nH]n2)c2ccccc21`, the “growth inhibition (GI)” value with HEK293 [1] is given as “Non-Toxic”; with PC-3, 85%; in the data set on SH-SY5Y [2] it was 85%. On Carbonic anhydrase 9, the Ki turned out to be 0.47 µM.
`CCn1cc(-c2cc(C(=O)O)n[nH]2)c2ccccc21`: the “growth inhibition (GI)” value in the data set with HEK293 [1] is reported as “Non-Toxic”; with PC-3 it was 85%; in the data set on SH-SY5Y [2], 85%.
`CCCCn1cc(-c2cc(C(=O)O)[nH]n2)c2ccccc21`: the affinity on Carbonic anhydrase 9, expressed as Ki, was 4.51 µM. That is a single-digit micromolar value.
For `CC(C)n1cc(-c2cc(C(=O)O)[nH]n2)c2ccccc21`, the “growth inhibition (GI)” value in the data set with HEK293 [1] is on record as “Non-Toxic”; in the data set with PC-3, 85%; with SH-SY5Y [2], 85%. At Carbonic anhydrase 9, this compound showed a Ki of 18.9 µM.
At Carbonic anhydrase 9, `CCn1cc(-c2cc(C(=O)O)n(C)n2)c2ccccc21` came in with a Ki of 2.91 µM. This lies in the single-digit micromolar range.
Consider `COC(=O)c1cc(-c2cn(C(C)C)c3ccccc23)n[nH]1`, for which the inhibition at 24 h, 100 µM in data set [3] was 70%. The results for the “growth inhibition (GI)” value with PC-3, with HEK293 [5] and in the data set with SH-SY5Y [2] were 85%, “Dose-dependent effect” and 85%, respectively. Also, in the data set with SH-SY5Y [4], the Activity is on record as 40%. Besides, at Carbonic anhydrase 9, the Ki stood at 7.36 µM.
With `CCn1cc(-c2cc(C(=O)OC)n(C)n2)c2ccccc21`, the affinity on Carbonic anhydrase 9, expressed as Ki, was 3.02 µM. This lies in the single-digit micromolar range.
As to `CCCCn1cc(-c2cc(C(=O)OC)[nH]n2)c2ccccc21`, the Ki on Carbonic anhydrase 9 amounted to 7.9 µM.

Broadly, the Ki is a measure of affinity in units of concentration, obtained from inhibition or displacement. A low value points to higher affinity.
